Key:
17β-HSD2 = target: T1, 17β-HSD2 (Homo sapiens, UniProt P37059); assay: Inhibition of 17β-HSD2 (estradiol to estrone, radio-HPLC); type: biochemical; conditions: human placenta microsome fraction, 500 nM estradiol, NAD+ 1500 μM
T1 construct: from tissue; host or cells: human placenta, microsome fraction
T1 sequence (P37059 1-387): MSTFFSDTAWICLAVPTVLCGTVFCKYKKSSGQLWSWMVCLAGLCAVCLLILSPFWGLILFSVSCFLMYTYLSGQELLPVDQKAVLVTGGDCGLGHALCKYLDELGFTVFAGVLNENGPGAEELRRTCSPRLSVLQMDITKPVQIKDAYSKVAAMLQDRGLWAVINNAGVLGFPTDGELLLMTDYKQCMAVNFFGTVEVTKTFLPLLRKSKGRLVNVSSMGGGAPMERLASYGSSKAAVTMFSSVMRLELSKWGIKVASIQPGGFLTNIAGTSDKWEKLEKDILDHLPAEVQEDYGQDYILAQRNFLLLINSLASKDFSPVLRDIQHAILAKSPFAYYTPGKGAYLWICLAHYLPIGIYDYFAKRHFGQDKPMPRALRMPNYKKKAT
Experimental: Determination of the inhibitory activity of the potential inhibitors: Inhibition of 17β-HSD1 and 17β-HSD2: In both cases, human placenta served as the enzyme source (Lin, S.-X. et al., J. Biol. Chem., 267: 16182-16187 (1992)).
In the 17β-HSD2 test, the natural cosubstrate NAD^+ is employed at a final concentration of 1500 μM. The microsome fraction is diluted in test buffer, so that a control conversion of 20 to 30% results (about 1:350). As the substrate, estradiol in a final concentration of 500 nM is used, of which 3 nM is tritiated. 2,4,6,7-[^3H]estradiol is also purchased from Perkin-Elmer, Boston. The inhibitor is added as a solution in DMSO (control: pure DMSO without inhibitor; the final concentration of DMSO in the assay is […]). After the addition of the substrate, incubation is performed at 37° C. for 20 minutes. The reaction is quenched by the addition of HgCl2 (final concentration of HgCl2: 0.166 mM).
(§1) After the reaction, the substrate and product are extracted by partitioning with ether, separated by chromatography (HPLC) and quantified by means of radiodetection.

17β-HSD1 = target: T2, 17β-HSD1 (Homo sapiens, UniProt P14061); assay: Inhibition of 17β-HSD1 (estrone to estradiol, radio-HPLC); type: biochemical; conditions: for IC50: human placenta enzyme, 500 nM estrone, NADH 500 μM; for Selectivity IC50 (17β-HSD2)/IC50 (17β-HSD1): ratio of IC50 values
T2 construct: In both cases, human placenta served as the enzyme source; from tissue; host or cells: human placenta
T2 sequence (P14061 1-328): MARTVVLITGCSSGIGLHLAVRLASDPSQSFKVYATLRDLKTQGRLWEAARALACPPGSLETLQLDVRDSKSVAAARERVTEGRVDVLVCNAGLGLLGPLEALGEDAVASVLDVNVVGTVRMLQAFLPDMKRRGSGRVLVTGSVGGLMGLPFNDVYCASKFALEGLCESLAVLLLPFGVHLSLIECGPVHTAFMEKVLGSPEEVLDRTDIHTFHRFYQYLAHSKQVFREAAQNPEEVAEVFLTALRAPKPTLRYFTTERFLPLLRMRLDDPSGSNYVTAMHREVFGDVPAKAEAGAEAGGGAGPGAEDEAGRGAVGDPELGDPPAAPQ
Experimental: In the 17β-HSD1 test, NADH is employed as a cosubstrate at a final concentration of 500 μM in order to avoid the product inhibition occurring with NADPH. The enzyme preparation is diluted with test buffer to such an extent that the control conversion is 10 to maximally 20% (about 1:650). As the substrate, estrone in a final concentration of 500 nM is used, of which 3 nM is tritiated. 2,4,6,7-[^3H]estrone is purchased from Perkin-Elmer, Boston. The inhibitor is added as a solution in DMSO (control: pure DMSO without inhibitor; the final concentration of DMSO in the assay is 1% in all cases).
as §1

[1] = In vivo pharmacokinetics (rat), peroral cassette dosing; design: species or system Wistar rats; conditions: 10 mg/kg; for AUC(0-inf): extrapolated to ∞
Experimental: In vivo pharmacokinetics (rat): The compounds 29, 45, 47 and 59 and a reference compound were administered to adult male Wistar rats (n=4) perorally in a cassette dosing method (vehicle: Labrasol/water 1/1). The plasma profiles were established by means of LC-MS/MS.
• Cmax obs highest measured concentration • Cz last analytically quantifiable concentration • tmax obs time to reach the highest measured concentration • tz time to withdrawal of the last sample with analytically quantifiable concentration • t1/2z half life (determined from the slope of the declining portion of the concentration vs. time curve • AUC0-tz area below the concentration vs. time curve up to time tZ • AUC0-∞ area below the concentration vs. time curve, extrapolated to ∞

Structure (SMILES)	IC50 (17β-HSD2)	IC50 (17β-HSD1)	Selectivity IC50 (17β-HSD2)/IC50 (17β-HSD1) (17β-HSD1)	other results
Oc1ccc(-c2ccsc2-c2ccc(O)cc2)cc1 [Compound 27, 4,4′-Thiene-2,3-diyldiphenol]	–	–	–	inhibition of 17β-HSD1 at a concentration of 1 μM (in words) (17β-HSD1): do not show any inhibition
Oc1ccc(-c2nsc(-c3ccc(O)cc3)n2)cc1 [Compound 39, 4,4′-(1,2,4-Thiadiazole-3,5-diyl)diphenol]	–	–	–	inhibition of 17β-HSD1 at a concentration of 1 μM (in words) (17β-HSD1): do not show any inhibition
Oc1cccc(-c2ccc(-c3cccc(F)c3)s2)c1 [Compound 50, 3-[5-(3-Fluorophenyl)-2-thienyl]phenol]	–	530 nM	–	–
CS(=O)(=O)Nc1cccc(-c2ccc(-c3cccc(O)c3)s2)c1 [Compound 51, N-{3-[5-(3-Hydroxyphenyl)-2-thienyl]phenyl}methanesulfonamide]	–	520 nM	–	–
Oc1cccc(-c2nnc(-c3cccc(O)c3)o2)c1 [Compound 35, 3,3′-(1,3,4-Oxadiazole-2,5-diyl)diphenol]	–	–	–	inhibition of 17β-HSD1 at a concentration of 1 μM (in words) (17β-HSD1): do not show any inhibition
Oc1ccc(-c2ccc(-c3ccc(O)cc3)s2)cc1 [Compound 30, 4,4′-Thiene-2,5-diyldiphenol]	–	–	–	inhibition of 17β-HSD1 at a concentration of 1 μM (in words) (17β-HSD1): do not show any inhibition
Oc1cccc(-c2cnc(-c3cccc(O)c3)cn2)c1 [Compound 58, 3,3′-Pyrazine-2,5-diyldiphenol]	5500 nM	1000 nM	5.5	–
Oc1cccc(-c2ccc(-c3ccc(F)cc3)s2)c1 [Compound 54, 3-[5-(4-Fluorophenyl)-2-thienyl]phenol]	–	720 nM	–	–
Oc1ccc(-c2cnc(-c3ccc(O)cc3)s2)cc1 [Compound 21, 4,4′-(1,3-Thiazole-2,5-diyl)diphenol]	–	–	–	inhibition of 17β-HSD1 at a concentration of 1 μM (in words) (17β-HSD1): do not show any inhibition
COc1ccc(-c2nsc(-c3cccc(O)c3)n2)cc1 [Compound 38, 3-[3-(4-Methoxyphenyl)-1,2,4-thiadiazole-5-yl]phenol]	–	820 nM	–	–
Oc1ccc(-c2cccc(-c3cccc(O)c3)c2)cc1 [Compound 43, [1,1′;3′,1″]Terphenyl-4,3″-diol]	3100 nM	1410 nM	2.2	–
Oc1cccc(-c2ccc(-c3ccc(O)c(O)c3)s2)c1 [Compound 46, 4-[5-(3-Hydroxyphenyl)-2-thienyl]benzene-1,2-diol]	1640 nM	800 nM	2.1	–

More lines, main results first:

IC50 (17β-HSD2)	IC50 (17β-HSD1)	Selectivity IC50 (17β-HSD2)/IC50 (17β-HSD1) (17β-HSD1)	Structure (SMILES)	other results
870 nM	100 nM	8.7	Cc1cc(-c2csc(-c3cccc(O)c3)c2)ccc1O [Compound 55, 4-[5-(3-Hydroxyphenyl)-3-thienyl]-2-methylphenol]	–
940 nM	10 nM	94	Oc1cccc(-c2ccc(-c3ccc(O)c(F)c3)s2)c1 [Compound 47, 2-Fluoro-4-[5-(3-hydroxyphenyl)-2-thienyl]phenol]	t1/2z (half life) [1]: 2.7 h; tmax obs (time to reach the highest measured concentration) [1]: 8.0 h; tz (time of last sample with quantifiable concentration) [1]: 24.0 h; Cz (last analytically quantifiable concentration) ([1]; plasma): 25 ng/mL; AUC(0-t) ([1]; male, Wistar, plasma, po): 19300 ng·h/mL; AUC(0-inf) ([1]; male, Wistar, plasma, po): 19400 ng·h/mL
5100 nM	200 nM	26	Oc1cccc(-c2nnc(-c3cccc(O)c3)nn2)c1 [Compound 59, 3,3′-(1,2,4,5-Tetrazine-3,6-diyl)diphenol]	tz (time of last sample with quantifiable concentration) [1]: 10.0 h; Cz (last analytically quantifiable concentration) ([1]; plasma): 54 ng/mL; AUC(0-t) ([1]; male, Wistar, plasma, po): 1200 ng·h/mL; AUC(0-inf) ([1]; male, Wistar, plasma, po): 1200 ng·h/mL; half-life ([1]; male, Wistar, plasma, po, read-out: t1/2z (half life) (converted)): 1.2 h; Tmax ([1]; male, Wistar, plasma, po, read-out: tmax obs (time to reach the highest measured concentration)): 3 h
560 nM	170 nM	3.3	Oc1cccc(-c2csc(-c3cccc(O)c3)c2)c1 [Compound 34, 3,3′-Thiene-2,4-diyldiphenol]	–
2340 nM	340 nM	6.9	Oc1cccc(-c2ccc(-c3ccccc3)s2)c1 [Compound 52, 3-(5-Phenyl-2-thienyl)phenol]	–
230 nM	50 nM	4.6	Oc1cccc(-c2ccc(-c3cc(F)c(O)c(F)c3)s2)c1 [Compound 48, 2,6-Difluoro-4-[5-(3-hydroxyphenyl)-2-thienyl]phenol]	–
1970 nM	40 nM	49	Cc1cc(-c2ccc(-c3cccc(O)c3)s2)ccc1O [Compound 45, 4-[5-(3-Hydroxyphenyl)-2-thienyl]-2-methylphenol]	t1/2z (half life) [1]: 3.8 h; tmax obs (time to reach the highest measured concentration) [1]: 4.0 h; tz (time of last sample with quantifiable concentration) [1]: 24.0 h; Cz (last analytically quantifiable concentration) ([1]; plasma): 43.4 ng/mL; AUC(0-t) ([1]; male, Wistar, plasma, po): 12000 ng·h/mL; AUC(0-inf) ([1]; male, Wistar, plasma, po): 12300 ng·h/mL
–	40 nM	–	Oc1cccc(-c2ccc(-c3ccc(O)c(C(F)(F)F)c3)s2)c1 [Compound 49, 4-[5-(3-Hydroxyphenyl)-2-thienyl]-2-(trifluoromethyl)phenol]	–
2020 nM	100 nM	20	Cc1cc(-c2cnc(-c3cccc(O)c3)s2)ccc1O [Compound 56, 4-[2-(3-Hydroxyphenyl)-1,3-thiazole-5-yl]-2-methylphenol]	–
3400 nM	100 nM	34	Oc1cccc(-c2ccc(-c3cccc(O)c3)nc2)c1 [Compound 57, 3,3′-Pyridine-2,5-diyldiphenol]	–
1270 nM	70 nM	18	Oc1ccc(-c2csc(-c3cccc(O)c3)c2)cc1 [Compound 33, 3-[4-(4-Hydroxyphenyl)-2-thienyl]phenol]	–
750 nM	110 nM	6.8	Oc1cccc(-c2ccc(-c3cccc(O)c3)s2)c1 [Compound 31, 3,3′-Thiene-2,5-diyldiphenol]	–
2200 nM	360 nM	6.1	Oc1ccc(-c2nsc(-c3cccc(O)c3)n2)cc1 [Compound 40, 3-[3-(4-Hydroxyphenyl)-1,2,4-thiadiazole-5-yl]phenol]	–
4500 nM	240 nM	19	Oc1ccc(-c2ccc(-c3cccc(O)c3)cc2)cc1 [Compound 44, [1,1′;4′,1″]Terphenyl-4,3″-diol]	–
–	510 nM	–	Oc1cccc(-c2nnc(-c3cccc(O)c3)s2)c1 [Compound 36, 3,3′-(1,3,4-Thiadiazole-2,5-diyl)diphenol]	–

From US20110046147A1, “17BETA-HYDROXYSTEROID DEHYDROGENASE TYPE 1 INHIBITORS FOR THE TREATMENT OF HORMONE-RELATED DISEASES” (UNIVERSITAT DES SAARLANDES, priority 2007, published 2011)
